# Like-named read-outs stand apart in the source and are kept apart here.
# Assays:
# [1] = tested on: PRKCB, PRKD1, HDAC9, CSF1R expression in GCT cells; test: Quantitative RT-PCR of co-treatment target genes; format: cell-based, Human; settings: 0.2 × EC50, 0.5 × EC50 and EC50
# Experimental: Quantitative RT-PCR (qRT-PCR) was performed as described previously. A total amount of 1 µg of RNA was in-vitro transcribed into cDNA by using Oligo(dT)18 Primer and Maxima H Minus Reverse Transcriptase (200 U/µL) (all Thermo Fisher Scientific). qRT-PCR runs were performed on a 384-well C1000 cycler (BioRad, Feldkirchen, Germany). All samples were analyzed in technical triplicates using 7.34 ng of cDNA for each replicate and the SYBR-green-based Luna Universal qPCR Master Mix (New England Biolabs, Frankfurt am Main, Germany). At the end of each run, melting curve analyses were performed. Oligonucleotide sequences are given in the supplement (Additional file 12: Table S2 B).
# [2] = tested on: fibroblasts (MPAF, HVHF2); test: XTT cell viability assay, fibroblasts; format: cell-based; settings: Homo sapiens, Fibroblast; after 48 h, mean
# Experimental: (§1) The […] (XTT) assays were performed as described previously. In summary, for GCT and fibroblast cell lines 5 × 10^3 cells (3 × 10^3 for UC, PCa and RCC cell lines) per 96-well were seeded and different drug concentrations (see Additional file 2: Fig. S2, Additional file 3: Fig. S3) or corresponding solvents were added to the cells the following day. For drug details see Additional file 12: Table S2 C. Each condition was analyzed in four technical replicates and EC50 values were calculated by GraphPad Prism v8.
# [3] = tested on: YST (yolk-sac tumor) cell lines; test: XTT cell viability assay, mean per entity YST; format: cell-based; settings: Homo sapiens, after 48 h
# Experimental: as §1
# [4] = tested on: EC-R (cisplatin-resistant embryonal carcinoma subclones); test: XTT cell viability assay, mean per entity EC-R; format: cell-based; settings: Homo sapiens, after 48 h
# Experimental: as §1
# SE (seminoma) cell lines = test: XTT cell viability assay, mean per entity SE; format: cell-based; settings: Homo sapiens, after 48 h
# Experimental: as §1
# 2102EP (EC) = test: XTT cell viability assay, 2102EP; format: cell-based; settings: Homo sapiens, read-out: EC50 colour/symbol code, EC 2102EP
# Experimental: as §1
# [5] = tested on: SE-R (cisplatin-resistant seminoma subclone); test: XTT cell viability assay, mean per entity SE-R; format: cell-based; settings: Homo sapiens, after 48 h
# Experimental: as §1
# JAR (CC) = test: XTT cell viability assay, JAR; format: cell-based; settings: Homo sapiens, after 48 h, n = 4, read-out: EC50 colour/symbol code, CC JAR
# Experimental: as §1
# [6] = tested on: CC-R (cisplatin-resistant choriocarcinoma subclones); test: XTT cell viability assay, mean per entity CC-R; format: cell-based; settings: Homo sapiens, after 48 h
# Experimental: as §1
# [7] = tested on: transcriptome of 2102EP cells; test: RNA sequencing; format: cell-based, Human; settings: 16 h; for A1BG Log2 fold change vs. DMSO / A1CF Log2 fold change vs. DMSO / A2M Log2 fold change vs. DMSO: unsorted data
# Outline: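 Transcriptome of 2102EP cells sequenced; differential expression between two groups tested with p values FDR-corrected for multiple testing. Solvent-control values averaged across three datasets (GSE189472, GSE190792, GSE190022).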
# [8] = tested on: phosphorylated kinase targets in 2102EP cells; test: Proteome Profiler Human Phospho-Kinase Array; format: cell-based; settings: 16 h
# Experimental: For the detection of phosphorylated kinase targets, the Proteome Profiler Human Phospho-Kinase Array Kit (R&D Systems, Abingdon, UK) was used according to the manufacturer’s instructions. The ChemiDoc Imaging System (Bio-Rad Laboratories, Feldkirchen, Germany) was used for detection. 2102EP cells were harvested after 16 h of treatment with the epi-drugs. Pixel density was analyzed using Fiji ImageJ 1.53c.
# [9] = tested on: DNA methylation (5mC, 5hmC) in 2102EP cells; test: DNA slot blot (5mC, 5hmC); format: cell-based, Human; settings: 24 h; for 5mC levels compared to solvent control: solvent control set to 100%
# Experimental: Purity of DNA was verified using NanoDrop 260/280 ratio and agarose gel electrophoresis. DNA was diluted in H2O to 200 ng, 100 ng and 50 ng in 200 µl per slot. Slot-Blotter device (Carl Roth GmbH + Co KG, Karlsruhe, Germany) was assembled as according to the manual. DNA was blotted onto a positively charged nylon membrane (Carl Roth GmbH + Co KG, Karlsruhe, Germany) using vacuum application. Three identical membranes were prepared. The membranes were air-dried for 15—20 min and UV-crosslinked (20 s (s), 1200 mJ/cm^2). One membrane was stained with methylene blue (0.02% methylene blue (Merck Millipore, Darmstadt, Germany) in 0.3 M sodium acetate (pH 5.2)) to validate DNA loading across the samples. The remaining two membranes were blocked in 5% milk powder in PBST for 1 h at RT. Membranes were incubated with 5mC or 5hmC antibody overnight at 4 °C. After washing, membranes were incubated with secondary antibody for 2 h at RT. Signals were detected using the ChemiDoc Imaging Systems (Bio-Rad Laboratories, Feldkirchen, Germany).
# [10] = tested on: EC (embryonal carcinoma) cell lines; test: XTT cell viability assay, mean per entity EC; format: cell-based; settings: Homo sapiens, after 48 h
# Experimental: as §1
# Sertoli cells FS1 (SC) = test: XTT cell viability assay, Sertoli cells; format: cell-based; settings: Homo sapiens; after 48 h
# Experimental: as §1
# [11] = sorted data log2>±1.5, FDR p<0.05
SMILES,EC50 [2] [nM],EC50 [3] [nM],EC50 [4] [nM],EC50 (SE (seminoma) cell lines) [nM],"EC50 (2102EP (EC); after 48 h, XTT, n = 4) [nM]",EC50 [5] [nM],EC50 (JAR (CC)) [nM],EC50 [6] [nM],A1BG Log2 fold change vs. DMSO [7],A1CF Log2 fold change vs. DMSO [7],A2M Log2 fold change vs. DMSO [7],"CREB, STAT3 and STAT5 phosphorylation and total levels of β-Catenin and HSP60 [8]",ERK1/2 phosphorylation [8],5hmC levels increase compared to solvent control [9] [%],5mC levels compared to solvent control [9] [%],EC50 [10] [nM],EC50 (Sertoli cells FS1 (SC)) [nM],p53 S15 phosphorylation [8],"EIF3CL Log2 fold change vs. DMSO [7, 11]",other results
CCCc1cc(C)[nH]c(=O)c1CNC(=O)c1cc(-c2ccnc(N3CCN(C)CC3)c2)cc2c1cnn2C(C)C [GSK343],9790,6180,9410,12100,1000 to 50000,10100,1000 to 50000,9060,-0.54,-2.01,-0.59,decreased,decreased,30,52,10600,10600,,,"CSF1R expression (qRT-PCR) [1]: upregulation; HDAC9 expression (qRT-PCR) [1]: upregulation; CSF1R Log2 fold change vs. DMSO [7, 11]: 3.81; FOSB Log2 fold change vs. DMSO [7, 11]: 3.96; GOLGA6D Log2 fold change vs. DMSO [7, 11]: -4.42; SCNN1B Log2 fold change vs. DMSO [7, 11]: -4.06; TAC1 Log2 fold change vs. DMSO [7, 11]: 3.59; UMODL1 Log2 fold change vs. DMSO [7, 11]: -3.29"
CN1C(=O)[C@@]23C[C@]4([C@]56C[C@@]78SS[C@@](CO)(C(=O)N7[C@H]5Nc5ccccc56)N(C)C8=O)c5ccccc5N[C@@H]4N2C(=O)[C@]1(CO)SS3 [Chaetocin],138,98.7,161,122,,218,< 1000,233,0.04,-2.02,1.33,decreased,,,85,128,69.3,increased,,"PRKD1 expression (qRT-PCR) [1]: upregulation; EC50 (2102EP (EC); 48 h): < 1000 nM; ATP1A2 Log2 fold change vs. DMSO [7, 11]: -3.26; CASQ1 Log2 fold change vs. DMSO [7, 11]: -2.99; DLX5 Log2 fold change vs. DMSO [7, 11]: 5.91; DLX6 Log2 fold change vs. DMSO [7, 11]: 5.90; POU2F3 Log2 fold change vs. DMSO [7, 11]: -2.99; SERPINB3 Log2 fold change vs. DMSO [7, 11]: 6.77"
Cn1cc(CNCC2CCN(c3ncc(C(=O)NO)cn3)CC2)c2ccccc21 [Quisinostat],> 50,6.88,7.35,9.48,< 1000,13.2,< 1000,10.7,1.07,2.77,-0.10,decreased,,,,11.6,6.25,no alteration,-3.69,"PRKCB expression (qRT-PCR) [1]: upregulation; HBA1 Log2 fold change vs. DMSO [7, 11]: 5.01; IL13RA2 Log2 fold change vs. DMSO [7, 11]: -2.69; LYST Log2 fold change vs. DMSO [7, 11]: -2.73; TSPY4 Log2 fold change vs. DMSO [7, 11]: 5.17; TTC9B Log2 fold change vs. DMSO [7, 11]: 4.98"
O=C1C(=Cc2cccnc2)C(=O)c2ccccc21 [PRT4165],,,,,,,,,-0.25,0.91,1.71,decreased,decreased,25,84,,,,-2.52,"BST2 Log2 fold change vs. DMSO [7, 11]: -2.05; MMP1 Log2 fold change vs. DMSO [7, 11]: 6.18; MMP10 Log2 fold change vs. DMSO [7, 11]: 6.89; PPFIA4 Log2 fold change vs. DMSO [7, 11]: -2.26; SPANXA1 Log2 fold change vs. DMSO [7, 11]: 5.74"

# — article PMC8742467, “Therapeutical interference with the epigenetic landscape of germ cell tumors: a comparative drug study and new mechanistical insights” (Clinical Epigenetics, 2022)
